In patent EP0808325B1, “[…] […] SERIES FOR […] GABA RECEPTOR” (priority 1994, dated 1996):

How the values were obtained:
[1] = system: metrazol induced convulsions; test: animal or person; type: in vivo, mice
Procedure: Experiments were also performed to determine the physiological relevance of neuroactive steroid and GABA receptor interactions by assessing the ability of the compounds of and used in the invention to prevent metrazol induced convulsions in mice. […] The time to onset of myoclonus (presence of forelimb clonic activity) induced by metrazol was determined by observing each mouse for a period of 30 minutes. […]
The anticonvulsant tests are similar to that described above. […] The number of animals with tonic and/or clonic convulsions was recorded. In the maximal electroshock test, 50 mA of current at 60 Hz was delivered through corneal electrodes for 200 msec to induce tonic seizure. The ability of compounds to abolish the tonic component was defined as the endpoint. General CNS depression potential was determined by a rotorod test 10 minutes after the injection of compounds where the number of mice staying on a rotating (6 rpm) rod for 1 minute in one of the three trials was determined. […]

GR complex = test: modulation of [35S]TBPS binding in rat cerebral cortex P2 homogenate; set-up: species or system Sprague-Dawley rats; IMAX: unit not given here; settings: for IC50: concentration of compounds to inhibit 50% of control [35S]TBPS binding, 2 nM [35S]TBPS, 25°C, 90 minutes; for IMAX: maximum inhibition of [35S]TBPS binding, I* = Inactive
Procedure: We performed several experiments to determine the nature of the modulation of [^35S]TBPS as affected by the compounds of the invention.
These procedures were performed as follows:
Brains from male Sprague-Dawley rats were removed immediately following sacrifice and the cerebral cortices dissected over ice. […] Briefly, the cortices were gently homogenized in 0.32 M sucrose followed by centrifugation at 1000 x g for 10 minutes. The supernatant was collected and centrifuged at 9000 x g for 20 minutes. The resultant P2 pellet was suspended as a 10% (original wet weight/volume) suspension in 50 mM Na/K phosphate buffer (pH 7.4) 200 mM NaCI to form the homogenate.
One hundred microliter […] aliquots of the P2 homogenate (0.5 milligrams (mg) protein) were incubated with 2 nanomolar (nM) [^35S]TBPS (70-110 curies/millimole;, New England Nuclear, Boston, MA) in the presence or absence of the naturally occurring steroids or their synthetic derivatives to be tested. The tested compounds were dissolved in dimethylsulfoxide (Baker Chem. Co., Phillipsbury, NJ) and added to the incubation mixture in 5 µL aliquots. The incubation mixture was brought to a final volume of 1 mL with buffer. Nonspecific binding was defined as binding in the presence of […]. The effect and specificity of GABA (Sigma Chem. Co., St. Louis, MO) was evaluated by performing all assays in the presence of GABA plus (+)bicuculline (Sigma Chem. Co.). Incubations maintained at 25°C for 90 minutes (steady state conditions) were terminated by rapid filtration through glass fiber filters (No. 32, Schleicher and Schuell, Keene, NH). Filter-bound radioactivity was quantitated by liquid scintillation spectrophotometry.
Various compounds were screened to determine their potential as modulators of [^35S]TBPS binding in vitro. These assays were performed in accordance with the above discussed procedures. […] It is an indication of a compound's in vitro potency. Maximum inhibition is an indication of a compound's in vitro efficacy.

[2] = 60 mg/kg, 1 hr, IP, anti-metrazol
[3] = IP, 50% hpbcd, 10 mg/kg, 10 minutes prior to metrazol (85 mg/kg)

SMILES | IC50 (GR complex; no unit printed) [nM] | IMAX (GR complex) | further results
CC(=O)C1CCC2C3CCC4CC(OC(=O)c5ccccc5)CCC4(C)C3CCC12C (stereo not shown) [Phenyl] | – | – | % Protection [1, 2]: 33%
CC(=O)C1CCC2C3CCC4CC(OC(=O)c5cccnc5)CCC4(C)C3CCC12C (stereo not shown) [Example 3-Pyridyl] | – | – | % Protection ([1]; 60 mg/kg, IP, 20 hour, anti-metrazol): 50 (20 hour) %
CC(=O)[C@H]1CC[C@H]2[C@@H]3CC[C@H]4C[C@](C)(O)CC[C@]4(C)[C@H]3C=C[C@]12C [3α-hydroxy-3β-methyl-5α-pregn-11-en-20-one] | 242 | 76 | –
C#C[C@@]1(O)CC[C@@]2(C)[C@@H](CC[C@@H]3[C@@H]2CC[C@]2(C)[C@@H]([C@@H](C)O)CC[C@@H]32)C1 [3α,20β-dihydroxy-3β-ethynyl-5α-pregnane, 3β-ethynyl-3α,20β-dihydroxy- 5α-pregnane] | 774 | 107 | % Protected [1, 3]: 37.5%
C#CC1(O)CCC2(C)C(CCC3C2CCC2(C)C(C(C)O)CCC32)C1 (stereo not drawn) [3α,20α-dihydroxy-3β-ethynyl-5β-pregnane, 3β-Ethynyl-3α,20α-dihydroxy-5β-pregnane] | 557 | 98 | –
C=C[C@@]1(O)CC[C@@]2(C)[C@@H](CC[C@@H]3[C@@H]2CC[C@]2(C)[C@@H](C(=O)COC(=O)CCC(=O)O)CC[C@@H]32)C1 [3α,21-dihydroxy-3β-ethenyl-5α-pregnan-20-one 21-hemisuccinate] | 377 | 89 | –
C[C@]12C[C@H](O)[C@H]3[C@@H](CCC4=CC(=O)CC[C@@]43C)[C@@H]1CC[C@@H]2C(=O)CO [corticosterone, reference compound] | > 1000 | I* | –
C[C@]12CC[C@@H](O)C[C@@H]1CC[C@@H]1[C@@H]2CC[C@]2(C)[C@@H](C(=O)COC(=O)CCC(=O)O)CC[C@@H]12 [3α,21-dihydroxy-5α-pregnan-20-one 21-hemisuccinate] | 117 | 91 | –
CCC(=O)OC1CCC2(C)C(CCC3C2CCC2(C)C(C(C)=O)CCC32)C1 (stereo not shown) [Ethyl] | – | – | % Protection [1, 2]: 75%
COC(=O)CCC(=O)OCC(=O)C1CCC2C3CCC4CC(O)(C(F)(F)F)CCC4(C)C3CCC12C (stereo not drawn) [3α,21-dihydroxy-3β-trifluoromethyl-5β-pregnan-20-one methyl 21-succinate] | 480 | 86 | –
CC(=O)[C@H]1CC[C@H]2[C@@H]3CC[C@H]4C[C@](O)(C(F)(F)F)CC[C@]4(C)[C@H]3CC[C@]12C [3α-Hydroxy-3β-trifluoromethyl-5α-pregnan-20-one] | 244 | 44 | % Protected [1, 3]: 62.5%
C[C@]12CC[C@@H](O)C[C@@H]1CC[C@@H]1[C@@H]2CC[C@]2(C)[C@@H](C(=O)COC(=O)CCC(=O)[O-])CC[C@@H]12.[Na+] [3α,21-dihydroxy-5α-pregnan-20-one 21-hemisuccinate, sodium salt] | – | 92 | IC50 (GR complex; unit inferred, sodium salt): 251 nM; % Protected ([1]; IP, water, 60 mg/kg): 100%
CC(=NCCO)[C@H]1CC[C@H]2[C@@H]3CC[C@H]4C[C@](C)(O)CC[C@]4(C)[C@H]3CC[C@]12C [N-(3α-hydroxy-3β-methyl-5α-pregnan-20-ylidine)ethanolamine] | 101 | 93 | –
CC(=O)C1CCC2C3CCC4CC(OC(=O)c5ccc(Cl)cc5)CCC4(C)C3CCC12C (stereo not shown) [4-Chlorophenyl] | – | – | % Protection [1, 2]: 50%
CC(=O)C1=CC[C@H]2[C@@H]3CC[C@@H]4C[C@](C)(O)CC[C@]4(C)[C@H]3CC[C@]12C [3α-hydroxy-3β-methyl-5β-pregn-16-en-20-one] | 955 | 100 | –
CC(=O)[C@H]1CC[C@H]2[C@@H]3CC[C@H]4C[C@](C)(O)CC[C@]4(C)[C@H]3C(=O)C[C@]12C [3α-hydroxy-3β-methyl-5α-pregnane-11,20-dione] | 958 | 100 | –
CC(=O)OCC(=O)[C@H]1CC[C@H]2[C@@H]3CC[C@H]4C[C@](C)(O)CC[C@]4(C)[C@H]3CC[C@]12C [3α,21-Hydroxy-3β-methyl-5α-pregnan-20-one, 21-acetate] | 284 | 93 | % Protected ([1]; IP, micro soln., 10 mg/kg): 10%
C=C[C@@]1(O)CC[C@@]2(C)[C@@H](CC[C@@H]3[C@@H]2CC[C@]2(C)[C@@H](C(=O)CO)CC[C@@H]32)C1 [3α,21-dihydroxy-3β-ethenyl-5α-pregnan-20-one] | 288 | 101 | –

SMILES | IC50 (GR complex; no unit printed) [nM] | IMAX (GR complex) | further results
CC(=O)OC1CCC2(C)C(CCC3C2CCC2(C)C(C(C)=O)CCC32)C1 (stereo not shown) [Methyl] | – | – | % Protection [1, 2]: 25%
CC(=O)[C@H]1CC[C@H]2[C@@H]3CCC4=CC(=O)CC[C@]4(C)[C@H]3CC[C@]12C [progesterone, reference compound] | > 1000 | I* | –
CC(=O)C1CCC2C3CCC4CC(OC(=O)C(C)C)CCC4(C)C3CCC12C (stereo not shown) [Example 2-Propyl] | – | – | % Protection [1, 2]: 75%
CC(C)(O)[C@H]1CC[C@H]2[C@@H]3CC[C@@H]4C[C@](C)(O)CC[C@]4(C)[C@H]3CC[C@]12C [3α,20-Dihydroxy-3β,20-dimethyl-5β-pregnane] | – | – | % Protected ([1]; IP, micro soln., 10 mg/kg): 22.2%
C#CC1(O)CCC2(C)C(CCC3C2CCC2(C)C(C(C)O)CCC32)C1 (stereo not drawn) [3α,20α-dihydroxy-3β-ethynyl-5α-pregnane, 3β-Ethynyl-3α,20α-dihydroxy-5α-pregnane] | 202 | 56 | –
CCC(=O)[C@H]1CC[C@H]2[C@@H]3CC[C@@H]4C[C@H](O)CC[C@]4(C)[C@H]3CC[C@]12C [3α-hydroxy-21-methyl-5β-pregnan-20-one] | 78 | 100 | –
CCCC(=O)O[C@@H]1CC[C@@]2(C)[C@@H](CC[C@@H]3[C@@H]2CC[C@]2(C)[C@@H](C(C)=O)CC[C@@H]32)C1 [Propyl] | – | – | % Protection [1, 2]: 75%
CC(O)C1CCC2C3CCC4CC(C)(O)CCC4(C)C3CCC12C (stereo not drawn) [3α,20β-dihydroxy-3β-methyl-5α-pregnane] | 924 | 99 | –
CCCCC#C[C@@]1(O)CC[C@@]2(C)[C@H](CC[C@@H]3[C@@H]2CC[C@]2(C)[C@@H](C(C)=O)CC[C@@H]32)C1 [3β-(1-hexynyl)-3α-hydroxy-5β-pregnan-20-one] | – | – | % Protected [1, 3]: 37.5%
CC(=O)[C@H]1CC[C@H]2[C@@H]3CC[C@@H]4C[C@](C)(O)CC[C@@H]4[C@H]3CC[C@]12C [3α-hydroxy-3β-methyl-5β-19-nor-pregnan-20-one] | 26 | 94 | –
CC(O)C1CCC2C3CCC4CC(C)(O)CCC4(C)C3CCC12C (stereo not drawn) [3α,20β-dihydroxy-3β-methyl-5β-pregnane] | 455 | 105 | –
CC12CCC(O)(C(F)(F)F)CC1CCC1C2CCC2(C)C(C(=O)CBr)CCC12 (stereo not drawn) [21-bromo-3α-hydroxy-3β-trifluoromethyl-5β-pregnan-20-one] | 1530 | 102 | –
CCCCC(=O)OC1CCC2(C)C(CCC3C2CCC2(C)C(C(C)=O)CCC32)C1 (stereo not shown) [Butyl] | – | – | % Protection ([1]; mouse, in vivo): 33%
CC(C)CCC[C@@H](C)[C@H]1CC[C@H]2[C@@H]3CC=C4C[C@@H](O)CC[C@]4(C)[C@H]3CC[C@]12C [cholesterol, reference compound] | > 1000 | I* | –
CCCC(CCC)C(=O)OC1CCC2(C)C(CCC3C2CCC2(C)C(C(C)=O)CCC32)C1 (stereo not shown) [Example 4-Heptyl] | – | – | % Protection ([1]; 60 mg/kg, IP, 4 hour, anti-metrazol): 16 (4 hour) %
COc1ccc(C(=O)OC2CCC3(C)C(CCC4C3CCC3(C)C(C(C)=O)CCC43)C2)cc1 (stereo not shown) [4-Methoxyphenyl] | – | – | % Protection [1, 2]: 17%
CCC(=O)[C@H]1CC[C@H]2[C@@H]3CC[C@H]4C[C@](C)(O)CC[C@]4(C)[C@H]3CC[C@]12C [3α-hydroxy-3β,21-dimethyl-5α-pregnan-20-one] | 89 | 85 | –
CC(=O)C1CCC2C3CCC4CC(O)(C#CCCCCl)CCC4(C)C3CCC12C (stereo not drawn) [3β-(5'-chloropentyn-1'-yl)-3α-hydroxy-5β-pregnan-20-one] | 44 | 98 | –
